Test results as given in publication PMC11879280, “Antimicrobial activity of peptoids against Metallo-β-lactamase-producing Klebsiella pneumoniae, Acinetobacter baumannii, Pseudomonas aeruginosa, and other WHO priority pathogens, including Candida auris” (Journal of Applied Microbiology, 2025).
Where two headings read alike, the source gives them in different places. Square brackets hold non-standard residues; d marks the D form. Peptide text beside a SMILES is read from it. Nspe = C[C@H](NCC(=O)O)c1ccccc1; Nlys = NCCCCNCC(=O)O

How the values were obtained:
Enterobacteriaceae = experiment: Geometric mean MIC, therapeutic index and selectivity ratio, Enterobacteriaceae; type: cell-based; details: Enterobacteriaceae (E. coli, K. pneumoniae, and E. aerogenes)
Method: (§1) Briefly, bacteria were suspended in cation-adjusted Mueller–Hinton broth (CAMHB; Oxoid, UK) for antibiotics, or MHB (Oxoid, UK) for peptidomimetics to obtain 5 × 10^5 colony forming unit (CFU) ml^−1. […] Positive controls contained only microbes, and blanks contained only media. Microbial suspensions (100 µl) were added to wells, plates wrapped, and incubated at 37°C, 120 rpm for 16–20 h. After incubation, suspensions were removed, log10 diluted, and plated on Trypticase Soya Agar with phosphatidylcholine and Tween 80 to determine minimum bactericidal or fungicidal concentration (MBC or MFC). […] Geometric mean MIC of the peptoids were calculated to evaluate the broad overview of antimicrobial activity across the pathogens.
(§2) The therapeutic indices (TIs) of the compounds were calculated with the use of following formula: […]

[1] = system: ESKAPEE pathogens (all bacteria); experiment: Geometric mean MIC, therapeutic index and selectivity ratio, all bacteria; type: cell-based; details: across the 23 ESKAPEE strains
Method: as §1, §2

C. auris CBS10913 = details: CBS 10 913
C. auris CBS12373 = experiment: Broth microdilution MIC; type: cell-based, Candida auris; details: CBS 12 373
C. auris strains = details: two C. auris strains
Method: as §1, §2

A. baumannii 007 = details: A. baumannii 007
In short: (§3)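 Each strain, at 5 × 10^5 CFU ml^−1, is exposed to compound in Mueller–Hinton-based broth (cation-adjusted for antibiotics) and incubated 16–20 h, 37°C, 120 rpm. Bactericidal concentrations come from plating log10 dilutions of the wells on supplemented agar.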

S. aureus 117 = details: S. aureus 117
In short: as §3

P. aeruginosa AR-1270 = details: P. aeruginosa AR-1270
In short: as §3

[2] = system: Enteroc. faecalis NCTC 13 379; details: Enteroc. faecalis NCTC 13 379
In short: as §3

A. baumannii 008 = details: A. baumannii 008
In short: as §3

E. coli 0011 = details: E. coli 0011
In short: as §3

K. pneumoniae JIE2713 = details: K. pneumoniae JIE2713
In short: as §3

K. pneumoniae JIE4212 = details: K. pneumoniae JIE4212
In short: as §3

A. baumannii ATCC 19 606 = details: A. baumannii ATCC 19 606
In short: as §3

E. coli 0015 = details: E. coli 0015
In short: as §3

En. cloacae 003 = details: En. cloacae 003
In short: as §3

K. pneumoniae JIE2709 = details: K. pneumoniae JIE2709
In short: as §3

E. coli 005 = details: E. coli 005
In short: as §3

S. aureus 38 = details: S. aureus 38
In short: as §3

S. aureus 04 = details: S. aureus 004
In short: as §3

En. cloacae 001 = details: En. cloacae 001
In short: as §3

S. aureus 105 = details: S. aureus 105
In short: as §3

En. cloacae 005 = details: En. cloacae 005
In short: as §3

A. baumannii 006 = details: A. baumannii 006
In short: as §3

[3] = RPMI 1640 with MOPS, 5 × 10^3 CFU ml^−1, ≥90% reduction (≥50% for fluconazole)
[4] = MHB (melimine/Mel4 with 0.2% BSA, 0.01% acetic acid), mean MIC

With `C[C@@H](c1ccccc1)N(CC(N)=O)C(=O)CN(CCCCN)C(=O)CN(C(=O)CN(C(=O)CN(CCCCN)C(=O)CN(C(=O)CN(C(=O)CN(CCCCN)C(=O)CN(C(=O)CN(C(=O)CNCCCCN)[C@@H](C)c1ccccc1)[C@@H](C)c1ccccc1)[C@@H](C)c1ccccc1)[C@@H](C)c1ccccc1)[C@@H](C)c1ccccc1)[C@@H](C)c1ccccc1` [TM6] (H-[Nlys][Nspe][Nspe][Nlys][Nspe][Nspe][Nlys][Nspe][Nspe][Nlys][Nspe]-NH2) the “Geometric mean MICE” value (Enterobacteriaceae) was 29.1 µg/mL, the “Geometric mean MIC, all bacteria” value [1] was 17.6 µg/mL and the “Geometric mean MIC, all bacteria” value ([1]; value in brackets) was 10.6 µM. For the same molecule, the “MIC against C. auris” value (C. auris CBS10913; [3]) was 31.25 µg/mL, the “MIC against C. auris” value (C. auris CBS10913; value in brackets) was 18.8 µM and the “MIC against C. auris” value (C. auris CBS12373; [3]) was 2 µg/mL. The “MIC against C. auris” value (C. auris CBS12373; value in brackets) was 1.2 µM, the “Geometric mean MICCA” value (C. auris strains) was 7.9 µg/mL and the MIC of peptidomimetics (A. baumannii 007; [4]) was 7.8 µg/mL. For the same molecule, the MIC of peptidomimetics (A. baumannii 007; value in brackets) was 4.7 µM, the MIC of peptidomimetics (S. aureus 117; [4]) was 7.8 µg/mL and the MIC of peptidomimetics (S. aureus 117; value in brackets) was 4.7 µM. The MIC of peptidomimetics (P. aeruginosa AR-1270; [4]) was 31.3 µg/mL, the MIC of peptidomimetics (P. aeruginosa AR-1270; value in brackets) was 18.8 µM and the MIC of peptidomimetics [2, 4] was 31.25 µg/mL. It also gave an MIC of peptidomimetics ([2]; value in brackets) of 18.8 µM, an MIC of peptidomimetics (A. baumannii 008; [4]) of 15.6 µg/mL and an MIC of peptidomimetics (A. baumannii 008; value in brackets) of 9.4 µM. It also gave an MIC of peptidomimetics (E. coli 0011; [4]) of 15.6 µg/mL, an MIC of peptidomimetics (E. coli 0011; value in brackets) of 9.4 µM and an MIC of peptidomimetics (K. pneumoniae JIE2713; [4]) of 62.5 µg/mL. It also gave an MIC of peptidomimetics (K. pneumoniae JIE2713; value in brackets) of 37.7 µM, an MIC of peptidomimetics (K. pneumoniae JIE4212; [4]) of 15.6 µg/mL and an MIC of peptidomimetics (K. pneumoniae JIE4212; value in brackets) of 9.4 µM. For the same molecule, the MIC of peptidomimetics (A. baumannii ATCC 19 606; [4]) was 7.8 µg/mL, the MIC of peptidomimetics (A. baumannii ATCC 19 606; value in brackets) was 4.7 µM and the MIC of peptidomimetics (E. coli 0015; [4]) was 62.5 µg/mL. For the same molecule, the MIC of peptidomimetics (E. coli 0015; value in brackets) was 37.7 µM, the MIC of peptidomimetics (En. cloacae 003; [4]) was 15.6 µg/mL and the MIC of peptidomimetics (En. cloacae 003; value in brackets) was 9.4 µM. It also gave an MIC of peptidomimetics (K. pneumoniae JIE2709; [4]) of 31.3 µg/mL, an MIC of peptidomimetics (K. pneumoniae JIE2709; value in brackets) of 18.8 µM and an MIC of peptidomimetics (E. coli 005; [4]) of 62.5 µg/mL. It also gave an MIC of peptidomimetics (E. coli 005; value in brackets) of 37.7 µM, an MIC of peptidomimetics (S. aureus 38; [4]) of 7.8 µg/mL and an MIC of peptidomimetics (S. aureus 38; value in brackets) of 4.7 µM. For the same molecule, the MIC of peptidomimetics (S. aureus 04; [4]) was 7.8 µg/mL, the MIC of peptidomimetics (S. aureus 04; value in brackets) was 4.7 µM and the MIC of peptidomimetics (En. cloacae 001; [4]) was 15.6 µg/mL. The MIC of peptidomimetics (En. cloacae 001; value in brackets) was 9.4 µM, the MIC of peptidomimetics (S. aureus 105; [4]) was 7.8 µg/mL and the MIC of peptidomimetics (S. aureus 105; value in brackets) was 4.7 µM. The MIC of peptidomimetics (En. cloacae 005; [4]) was 15.6 µg/mL, the MIC of peptidomimetics (En. cloacae 005; value in brackets) was 9.4 µM and the MIC of peptidomimetics (A. baumannii 006; [4]) was 7.8 µg/mL. For the same molecule, the MIC of peptidomimetics (A. baumannii 006; value in brackets) was 4.7 µM.
